Reference: publication PMC5928494 (ACS Omega, 2018)
Where two headings read alike, the source gives them in different places.

Tests used:
[1] = test system: ID-8 (murine ovarian cancer) cell line; test: cells; conditions: Mus musculus, 72 h, read-out: Cytotoxicity IC50, ID-8
in vitro = conditions: human
[2] = test system: MX-1 (human breast cancer) cell line; test: cells; conditions: 72 h, read-out: Cytotoxicity IC50, MX-1
[3] = test system: MX-1 (human breast cancer) cell line
[4] = test system: WI-38 (human lung fibroblast, normal) cell line
[5] = test system: ID-8 (murine ovarian cancer) cell line

| Compound | IC50 [1] [nM] | IC50 (in vitro) [nM] | IC50 [2] [nM] | IC50 [3] [nM] | IC50 [4] [nM] | IC50 [5] [nM] |
| --- | --- | --- | --- | --- | --- | --- |
| CC(=O)O[C@H]1C(=O)[C@@]2(C)[C@H]([C@H](OC(=O)c3ccccc3)[C@]3(O)C[C@H](OC(=O)[C@H](O)[C@@H](NC(=O)c4ccccc4)c4ccccc4)C(C)=C1C3(C)C)[C@]1(OC(C)=O)CO[C@@H]1C[C@@H]2O [paclitaxel] | 21.2 ± 4.3 | 175 ± 51.6 | 3.83 ± 0.59 | – | – | – |
| SB-T-1214 [compound 4, reference compound] | – | – | – | 2.9 ± 0.47 | 4.14 ± 0.82 | 1.89 ± 0.3 |
